The structures appear in SMILES notation.

Assay [1] concerns production of TNF by monocytes activated with bacterial lipopolysaccharide (LPS). The assay is described as follows: Lipopolysaccharide-activated monocyte TNF production assay. The note with it: Homo sapiens, read-out: IC50 values in the monocyte assay (LPS induced TNF release). Type of assay: cell-based. The essentials: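 Adherent human PBMC-derived monocytes (~70%) in DMEM/2% FCS were pre-incubated 60 min with nine two-fold compound dilutions, then stimulated with E. coli K532 LPS (added as 30 ng/ml solution) for 4 h at 37 °C. Supernatant TNF-α was measured by sandwich ELISA. IC50 was taken from a polynomial fit of TNF versus compound concentration.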

Another assay deals with LCK KD GST (225-509) (Homo sapiens, UniProt P06239). The assay is described as follows: LCK Homogenous Time Resolved Flourescent (HTRF) kinase assay. To be noted: average IC50 value in the human HTRF assay for the inhibition of the Lck kinase enzyme. On the technique in general: Time-resolved FRET reads energy transfer from a long-lived donor to a nearby acceptor.
Chain of LCK KD GST (225-509) (P06239 225-509): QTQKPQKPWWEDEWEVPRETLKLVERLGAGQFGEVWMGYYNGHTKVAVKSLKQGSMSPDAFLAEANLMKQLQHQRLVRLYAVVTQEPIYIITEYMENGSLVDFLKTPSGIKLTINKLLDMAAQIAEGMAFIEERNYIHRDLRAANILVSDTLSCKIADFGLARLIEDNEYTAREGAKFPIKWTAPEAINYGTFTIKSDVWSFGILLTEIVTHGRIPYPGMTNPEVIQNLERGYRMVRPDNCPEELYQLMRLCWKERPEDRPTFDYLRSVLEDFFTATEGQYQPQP

For orientation: IC50 means the concentration that inhibits the measured activity by half. On to `COc1c(C(=O)Nc2cc(C(F)(F)F)ccc2N(C)CCCN(C)C)cc(-c2ccc3nc(N)ncc3c2)c(OC)c1OC` [Example 110, 5-(2-amino-6-quinazolinyl)-N-(2-((3-(dimethylamino)propyl)methyl)amino-5-(trifluoromethyl)phenyl)-2,3,4-tris(methyloxy)benzamide], for which the IC50 in assay [1] was not above 25 µM; against LCK KD GST (225-509) it was not above 1 µM. Turning to `Cc1ccc(C(=O)NC2CC2)cc1-c1ccc2nc(NC3CCN(C)CC3)ncc2c1` [Example 45, N-cyclopropyl-4-methyl-3-(2-((1-methyl-4-piperidinyl)amino)-6-quinazolinyl) benzamide], the IC50 against LCK KD GST (225-509) is not above 25 µM. For `CNc1ncc2cc(-c3cccc(C(=O)Nc4cccc(OC(F)(F)F)c4)c3C)cnc2n1` [Example 183, 2-methyl-3-(2-(methylamino)pyrido [2,3-d]pyrimidin-6-yl)-N-(3-((trifluoromethyl)oxy)phenyl)benzamide], the IC50 is not above 25 µM in assay [1] and not above 1 µM against LCK KD GST (225-509). In turn, `Cc1ccc(C(=O)Nc2cc(C(F)(F)F)ccc2CN2CCN(C)CC2)cc1-c1ccc2ncnc(N)c2c1` [Example 383, 3-(4-amino-6-quinazolinyl)-4-methyl-N-(2-((4-methyl-1-piperazinyl)methyl)-5-(trifluoromethyl)phenyl)benzamide] yielded an IC50 against LCK KD GST (225-509) not above 1 µM. On the same count and under the same terms, for `Cc1ccc(C(=O)NC2CC2)cc1-c1ccc2nc(NCCN3CCCCC3)ncc2c1` [Example 47, N-cyclopropyl-4-methyl-3-(2-((2-(1-piperidinyl)ethyl)amino)-6-quinazolinyl) benzamide] the value was not above 1 µM; for `Nc1ncc2cc(-c3ccc(C(=O)Nc4cccc(C(F)(F)F)c4)cc3)ccc2n1` [Example 15, 4-(2-amino-6-quinazolinyl)-N-(3-(trifluoromethyl)phenyl)benzamide], not above 1 µM.

In the case of `CNc1ncc2cc(-c3cc(C(=O)Nc4ccc(F)c(C(F)(F)F)c4)ccc3C)ccc2n1` [Example 16, N-(4-fluoro-3-(trifluoromethyl)phenyl)-4-methyl-3-(2-(methylamino)-6-quinazolinyl)benzamide], the IC50 in assay [1] is not above 25 µM; on LCK KD GST (225-509) it was not above 1 µM. `Cc1ccc(C(=O)Nc2cc(Cl)ccc2N(C)CCCN(C)C)cc1-c1ccc2nc(N)ncc2c1` [Example 95, 3-(2-amino-6-quinazolinyl)-N-(5-chloro-2-((3-(dimethylamino)propyl)(methyl)amino)phenyl)-4-methylbenzamide]: the IC50 against LCK KD GST (225-509) was not above 1 µM. Turning to `CN(C)c1cccc2c(S(=O)(=O)Nc3cccc(-c4ccc5nc(N)ncc5c4)c3)cccc12` [Example 55, N-(3-(2-amino-6-quinazolinyl)phenyl)-5-(dimethylamino)-1-naphthalenesulfonamide], the results for the concentration for half-maximal inhibition (IC50) (in assay [1]; on LCK KD GST (225-509)) were not above 25 µM and not above 1 µM, respectively. `Cc1ccc(C(=O)Nc2cc(C(F)(F)F)ccc2N(C)C2CCN(C)C2)cc1-c1ccc2nc(N)ncc2c1` (stereo in doubt) [Example 238, 3-(2-amino-6-quinazolinyl)-4-methyl-N-(2-(methyl((3S)-1-methyl-3-pyrrolidinyl)amino-5-(trifluoromethyl)phenyl)berizamide] yielded an IC50 on LCK KD GST (225-509) not above 1 µM.

`Cc1ccc(C(=O)Nc2cc(C(F)(F)F)ccc2N(C)C)cc1-c1ccc2ncnc(N)c2c1` [Example 385, 3-(4-amino-6-quinazolinyl)-N-(2-(dimethylamino)-5-(trifluoromethyl)phenyl)-4-methylbenzamide] registered an IC50 at LCK KD GST (225-509) not above 1 µM. The same measure, in the same setting: for `CC(C)c1cccc(C(=O)Nc2cc(-c3ccc4nc(N)ncc4c3)cc(C(F)(F)F)c2)c1` [Example 512, N-(3-(2-amino-6-quinazolinyl)-5-(trifluoromethyl)phenyl)-3-(1-methylethyl)benzamide] the value was not above 1 µM.

Regarding `Cc1ccc(C(=O)Nc2cccc(NC(=O)CN3CCOCC3)c2C)cc1-c1ccc2nc(N)ncc2c1` [Example 56, 3-(2-Amino-6-quinazolinyl)-4-methyl-N-(2-methyl-3-((4-morpholinylacetyl)amino)phenyl)benzamide], the IC50 is not above 25 µM in assay [1] and not above 1 µM against LCK KD GST (225-509). As for `Nc1ncc2cc(-c3cccc(C(=O)Nc4cccc(OC(F)(F)F)c4)c3)ccc2n1` [Example 98, 3-(2-amino-6-quinazolinyl)-N-(3-((trifluoromethyl)oxy)phenyl)benzamide], the IC50 against LCK KD GST (225-509) was not above 1 µM. Take `COc1c(Br)cc(-c2ccc3nc(N)ncc3c2)cc1C(=O)Nc1cc(C(F)(F)F)ccc1N(C)CCCN(C)C` [Example 103, 5-(2-amino-6-quinazolinyl)-3-bromo-N-(2-((3-(dimethylamino)propyl)(methyl)amino)-5-(trifluoromethyl)phenyl)-2-(methyloxy)benzamide]: on LCK KD GST (225-509), the IC50 was not above 1 µM. Still for that read-out and setting: the same measure for `Cc1ccc(C(=O)NCCN(C)C)cc1-c1ccc2nc(N)ncc2c1` [Example 134, 3-(2-amino-6-quinazolinyl)-N-(2-(dimethylamino)ethyl)-4-methylbenzamide]: not above 25 µM; for `CC1(C)CC(=O)Nc2cc(NC(=O)c3cc(-c4ccc5nc(N)ncc5c4)ccc3F)ccc21` [Example 412]: not above 1 µM.

At LCK KD GST (225-509), `CN(C)CCCN(C)c1ccc(C(F)(F)F)cc1NC(=O)c1cc(-c2ccc3nc(N)ncc3c2)cc2c1OCC2` [Example 96, 5-(2-amino-6-quinazolinyl)-N-(2-((3-(dimethylamino)propyl)(methyl)amino)-5-(trifluoromethyl)phenyl)-2,3-dihydro-1-benzofuran-7-carboxamide] displayed an IC50 not above 1 µM. For the molecule `Cc1ccc(C(=O)Nc2cccc(C(F)(F)F)c2)cc1-c1ccc2nc(N)ncc2c1` [Example 120, 3-(2-amino-6-quinazolinyl)-4-methyl-N-(3-(trifluoromethyl)phenyl)benzamide], the IC50 in assay [1] was not above 25 µM. Same read-out and setting: the same measure for `Cc1ccc(C(=O)Nc2ccc(I)cn2)cc1-c1ccc2nc(N)ncc2c1` [Example 353, 3-(2-amino-6-quinazolinyl)-N-(5-iodo-2-pyridinyl)-4-methylbenzamide]: not above 25 µM. At LCK KD GST (225-509), `Cc1ccc(C(=O)NC2CC2)cc1-c1ccc2nc(NCCN(C)C)ncc2c1` [Example 44] returned an IC50 not above 25 µM. Turning to `Cc1ccc(C(=O)NCc2ccc(C(F)(F)F)nc2)cc1-c1ccc2nc(N)ncc2c1` [Example 357, 3-(2-amino-6-quinazolinyl)-4-methyl-N-((6-(trifluoromethyl)-3-pyridinyl)methyl) benzamide], the IC50 in assay [1] was not above 25 µM. Regarding `Nc1ncnc2ccc(-c3cccc(NC(=O)c4cccc(C(F)(F)F)c4)c3)cc12` [Example 513, N-(3-(4-amino-6-quinazolinyl)phenyl)-3-(trifluoromethyl)benzamide], the IC50 on LCK KD GST (225-509) was not above 1 µM.

As to `Nc1ncc2cc(-c3ccc(F)c(NC(=O)c4cc(F)cc(C(F)(F)F)c4)c3)ccc2n1` [Example 489, N-(5-(2-amino-6-quinazolinyl)-2-fluorophenyl)-3-fluoro-5-(trifluoromethyl)benzamide], the IC50 in assay [1] was not above 25 µM. Consider `COc1c(C(=O)Nc2cccc(C(F)(F)F)c2)cc(-c2ccc3nc(N)ncc3c2)c(OC)c1OC` [Example 109, 5-(2-amino-6-quinazolinyl)-2,3,4-tris(methyloxy)-(trifluoromethyl)-N-(3-phenyl)benzamide], for which the IC50 in assay [1] is not above 25 µM; at LCK KD GST (225-509) it was not above 1 µM. For the molecule `Cc1ccc(C(=O)Nc2ccc(C(C)(C)C)cc2)cc1-c1ccc2nc(N)ncc2c1` [Example 128, 3-(2-amino-6-quinazolinyl)-N-(4-(1,1-dimethylethyl)phenyl)-4-methylbenzamide], the IC50 in assay [1] was not above 25 µM. Same read-out and setting: the same measure for `CC(C)(C)c1ccc(C(=O)Nc2cc(-c3ccc4nc(N)ncc4c3)ccc2F)cc1` [Example 488, N-(5-(2-amino-6-quinazolinyl)-2-fluorophenyl)-4-(1,1-dimethylethyl)benzamide]: not above 25 µM; for `O=C(Nc1cccc(C(F)(F)F)c1)c1cccc(-c2ccc3ccnc(O)c3c2)c1` [Example 51, 3-(1-hydroxy-7-isoquinolinyl)-N-(3-(trifluoromethyl)phenyl)benzamide]: not above 25 µM. As for `Cc1ccnc(NC(=O)c2ccc(C)c(-c3ccc4nc(N)ncc4c3)c2)c1` [Example 339, 3-(2-amino-6-quinazolinyl)-4-methyl-N-(4-methyl-2-pyridinyl)benzamide], the IC50 in assay [1] was not above 25 µM.

As for `CNc1ncc2cc(-c3cc(C(=O)Nc4ccc(OC)c(C(F)(F)F)c4)ccc3C)cnc2n1` [Example 184, 4-methyl-3-(2-(methylamino)pyrido [2,3-d]pyrimidin-6-yl)-N-(4-(methyloxy)-3-(trifluoromethyl)phenyl)benzamide], the IC50 in assay [1] was not above 25 µM; at LCK KD GST (225-509) it was not above 1 µM. Turning to `Cc1ccc(C(=O)Nc2cc(C(F)(F)F)ccc2N(C)C)cc1-c1ccc2nc(N)ncc2c1` [Example 81, 3-(2-amino-6-quinazolinyl)-N-(2-(dimethylamino)-5-(trifluoromethyl)phenyl)-4-methylbenzamide], the IC50 in assay [1] is not above 25 µM.

For the molecule `Nc1ncc2cc(-c3cc(NC(=O)c4cccc(Cl)c4Cl)ccc3Cl)ccc2n1` [Example 482, N-(3-(2-amino-6-quinazolinyl)-4-chlorophenyl)-2,3-dichlorobenzamide], the IC50 in assay [1] is not above 25 µM.

Source of the values: US20070054916A1, “Aryl nitrogen-containing bicyclic compounds and methods of use” (Amgen Inc., priority 2004, published 2007).
